Laboratory results from ChEMBL document CHEMBL1133947, “Synthesis and biological properties of new 1beta-methylcarbapenems containing heteroaromatic thioether moiety” (Bioorg Med Chem Lett, 2001).
Converted amounts (≈) assume the structure as drawn.

Columns and labels:
[1] = system: Escherichia coli; experiment: In vitro antibacterial activity against Escherichia coli 078; assay type: functional
[2] = system: Escherichia coli; experiment: In vitro antibacterial activity against Escherichia coli 1507E; assay type: functional
[3] = system: Klebsiella aerogenes; experiment: In vitro antibacterial activity against Klebsiella aerogenes 1522E; assay type: functional
[4] = system: Staphylococcus aureus; experiment: In vitro antibacterial activity against Staphylococcus aureus SG 511; assay type: functional
[5] = system: Staphylococcus aureus; experiment: In vitro antibacterial activity against Staphylococcus aureus 285; assay type: functional
[6] = species on record: Sus scrofa; experiment: DHP-I stability of compound relative to t1/2 of hydrolysis to meropenem; assay type: functional; design: scale not given: the % may be the effect or the level left
[7] = system: Pseudomonas aeruginosa; experiment: In vitro antibacterial activity against Pseudomonas aeruginosa 9027; assay type: functional
[8] = system: Enterobacter cloacae; experiment: In vitro antibacterial activity against Enterobacter cloacae 1321E; assay type: functional
[9] = system: Streptococcus pyogenes; experiment: In vitro antibacterial activity against Streptococcus pyogenes 308A; assay type: functional
[10] = system: Pseudomonas aeruginosa; experiment: In vitro antibacterial activity against Pseudomonas aeruginosa 1771M; assay type: functional
[11] = system: Salmonella typhimurium; experiment: In vitro antibacterial activity against Salmonella Typhimurium; assay type: functional, Salmonella enterica subsp. enterica serovar Typhimurium; conditions: Salmonella enterica
[12] = system: Staphylococcus aureus; experiment: In vitro antibacterial activity against Staphylococcus aureus 503; assay type: functional
[13] = Area under curve of compound after iv administration of 20 mg/kg dose in rat; assay type: ADME, organism-based; design: dose 20 mg/kg, route intravenous; conditions: in vivo
[14] = Half life of compound after iv administration of 20 mg/kg dose in rat; assay type: ADME, organism-based; design: dose 20 mg/kg, route intravenous; conditions: in vivo
[15] = Clearance of compound after iv administration of 20 mg/kg dose in rat; assay type: ADME, organism-based; design: dose 20 mg/kg, route intravenous; conditions: in vivo

SMILES | MIC [1] [µg/mL] | MIC [2] [µg/mL] | MIC [3] [µg/mL] | MIC [4] [µg/mL] | MIC [5] [µg/mL] | Stability [6] [%] | MIC [7] [µg/mL] | MIC [8] [µg/mL] | MIC [9] [ng/mL] | MIC [10] [µg/mL] | MIC [11] [µg/mL] | MIC [12] [µg/mL] | AUC [13] [ng·h/mL] | half-life [14] [min] | clearance [15] [mL/min/kg]
C[C@@H](O)[C@H]1C(=O)N2C(C(=O)O)=C(S[C@@H]3CN[C@H](CSc4nncn4C)C3)[C@H](C)[C@H]12 | 0.025 (≈ 0.0569 µM) | 0.049 (≈ 0.111 µM) | 0.098 (≈ 0.223 µM) | 0.049 (≈ 0.111 µM) | 0.098 (≈ 0.223 µM) | 93 | 1.56 (≈ 3.56 µM) | 0.049 (≈ 0.111 µM) | 13 (≈ 0.0296 µM) | 0.195 (≈ 0.444 µM) | 0.098 (≈ 0.223 µM) | 0.025 (≈ 0.0569 µM) | – | – | –
C[C@@H](O)[C@H]1C(=O)N2C(C(=O)O)=C(S[C@@H]3CN[C@H](C(=O)N(C)C)C3)[C@H](C)[C@H]12 [MEROPENEM] | 0.025 (≈ 0.0652 µM) | 0.025 (≈ 0.0652 µM) | 0.049 (≈ 0.128 µM) | 0.195 (≈ 0.509 µM) | 0.195 (≈ 0.509 µM) | 100 | 0.195 (≈ 0.509 µM) | 0.025 (≈ 0.0652 µM) | 13 (≈ 0.0339 µM) | 0.049 (≈ 0.128 µM) | 0.049 (≈ 0.128 µM) | 0.098 (≈ 0.256 µM) | – | – | –
C[C@@H](O)[C@H]1C(=O)N2C(C(=O)O)=C(S[C@@H]3CN[C@H](CSc4ncccn4)C3)[C@H](C)[C@H]12 | 0.049 (≈ 0.112 µM) | 0.049 (≈ 0.112 µM) | 0.098 (≈ 0.224 µM) | 0.025 (≈ 0.0573 µM) | 0.049 (≈ 0.112 µM) | 89 | 3.12 (≈ 7.16 µM) | 0.049 (≈ 0.112 µM) | < 2 | 0.391 (≈ 0.896 µM) | 0.098 (≈ 0.224 µM) | 0.025 (≈ 0.0573 µM) | – | – | –
C[C@@H](O)[C@H]1C(=O)N2C(C(=O)O)=C(S[C@@H]3CN[C@H](CSc4cnns4)C3)[C@H](C)[C@H]12 | 0.013 (≈ 0.0294 µM) | 0.013 (≈ 0.0294 µM) | 0.025 (≈ 0.0565 µM) | 0.025 (≈ 0.0565 µM) | 0.049 (≈ 0.111 µM) | 167 | 1.56 (≈ 3.53 µM) | 0.013 (≈ 0.0294 µM) | 7 (≈ 0.0158 µM) | 0.195 (≈ 0.441 µM) | 0.025 (≈ 0.0565 µM) | 0.013 (≈ 0.0294 µM) | 36900 | 43.1 | 10.2
C[C@@H](O)[C@H]1C(=O)N2C(C(=O)O)=C(S[C@@H]3CN[C@H](CSc4nccc(C(F)(F)F)n4)C3)[C@H](C)[C@H]12 | 0.025 (≈ 0.0495 µM) | 0.025 (≈ 0.0495 µM) | 0.049 (≈ 0.0971 µM) | 0.098 (≈ 0.194 µM) | 0.098 (≈ 0.194 µM) | – | 50 (≈ 99.1 µM) | 0.025 (≈ 0.0495 µM) | 7 (≈ 0.0139 µM) | 0.781 (≈ 1.55 µM) | 0.049 (≈ 0.0971 µM) | 0.025 (≈ 0.0495 µM) | – | – | –
CNC(=O)c1cccnc1SC[C@@H]1C[C@H](SC2=C(C(=O)O)N3C(=O)[C@H]([C@@H](C)O)[C@H]3[C@H]2C)CN1 | 0.049 (≈ 0.0995 µM) | 0.098 (≈ 0.199 µM) | 0.098 (≈ 0.199 µM) | < 0.049 | < 0.049 | – | 12.5 (≈ 25.4 µM) | 0.049 (≈ 0.0995 µM) | < 2 | 1.56 (≈ 3.17 µM) | 0.098 (≈ 0.199 µM) | 0.025 (≈ 0.0507 µM) | – | – | –
Cc1nnc(SC[C@@H]2C[C@H](SC3=C(C(=O)O)N4C(=O)[C@H]([C@@H](C)O)[C@H]4[C@H]3C)CN2)s1 | 0.007 (≈ 0.0153 µM) | 0.007 (≈ 0.0153 µM) | 0.025 (≈ 0.0548 µM) | 0.025 (≈ 0.0548 µM) | 0.025 (≈ 0.0548 µM) | 108 | 3.12 (≈ 6.84 µM) | 0.013 (≈ 0.0285 µM) | 4 (≈ 0.00876 µM) | 0.195 (≈ 0.427 µM) | 0.025 (≈ 0.0548 µM) | 0.007 (≈ 0.0153 µM) | – | – | –
C[C@@H](O)[C@H]1C(=O)N2C(C(=O)O)=C(SCCNC=N)C[C@H]12.O [IMIPENEM] | – | – | – | – | – | – | – | – | – | – | – | – | – | 3.46 | –
C[C@@H](O)[C@H]1C(=O)N2C(C(=O)O)=C(S[C@@H]3CN[C@H](CSc4ncccc4O)C3)[C@H](C)[C@H]12 | 0.195 (≈ 0.432 µM) | 0.195 (≈ 0.432 µM) | 0.195 (≈ 0.432 µM) | 0.025 (≈ 0.0554 µM) | 0.049 (≈ 0.109 µM) | – | 25 (≈ 55.4 µM) | 0.098 (≈ 0.217 µM) | < 2 | 6.25 (≈ 13.8 µM) | 0.195 (≈ 0.432 µM) | 0.195 (≈ 0.432 µM) | – | – | –
C[C@@H](O)[C@H]1C(=O)N2C(C(=O)O)=C(S[C@@H]3CN[C@H](CSc4nnnn4C)C3)[C@H](C)[C@H]12 | 0.025 (≈ 0.0567 µM) | 0.025 (≈ 0.0567 µM) | 0.025 (≈ 0.0567 µM) | 0.025 (≈ 0.0567 µM) | 0.049 (≈ 0.111 µM) | 88 | 0.781 (≈ 1.77 µM) | 0.025 (≈ 0.0567 µM) | 4 (≈ 0.00908 µM) | 0.195 (≈ 0.443 µM) | 0.025 (≈ 0.0567 µM) | 0.025 (≈ 0.0567 µM) | – | 11 | –
Cc1ccnc(SC[C@@H]2C[C@H](SC3=C(C(=O)O)N4C(=O)[C@H]([C@@H](C)O)[C@H]4[C@H]3C)CN2)n1 | 0.049 (≈ 0.109 µM) | 0.098 (≈ 0.217 µM) | 0.098 (≈ 0.217 µM) | 0.049 (≈ 0.109 µM) | 0.098 (≈ 0.217 µM) | 122 | 25 (≈ 55.5 µM) | 0.098 (≈ 0.217 µM) | 7 (≈ 0.0155 µM) | 6.25 (≈ 13.9 µM) | 0.098 (≈ 0.217 µM) | 0.025 (≈ 0.0555 µM) | – | – | –
